Values quoted from earlier work in patent publication US20160324796A1, “COMPOSITIONS AND THEIR USE TO TREAT COMPLICATIONS OF ANEURYSMAL SUBARACHNOID HEMMORRHAGE” (Edge Therapeutics, Inc., priority 2007, published 2016).
Read-outs that look alike come from different tables or passages of the source. Ends that are not written are not given here.

Legend:
patients with SAH [1] = settings: cited from earlier work; for patients with primary end point: placebo 27%; for patients with poor outcome (extended Glasgow Outcome Scale score </=4): placebo 24%
patients with SAH [2] = settings: cited from earlier work
N-type calcium current = N-type calcium current (Homo sapiens, UniProt Q00975); settings: at 300 nM to 500 nM; cited from earlier work
N-type calcium current, sequence (Q00975 whole entry): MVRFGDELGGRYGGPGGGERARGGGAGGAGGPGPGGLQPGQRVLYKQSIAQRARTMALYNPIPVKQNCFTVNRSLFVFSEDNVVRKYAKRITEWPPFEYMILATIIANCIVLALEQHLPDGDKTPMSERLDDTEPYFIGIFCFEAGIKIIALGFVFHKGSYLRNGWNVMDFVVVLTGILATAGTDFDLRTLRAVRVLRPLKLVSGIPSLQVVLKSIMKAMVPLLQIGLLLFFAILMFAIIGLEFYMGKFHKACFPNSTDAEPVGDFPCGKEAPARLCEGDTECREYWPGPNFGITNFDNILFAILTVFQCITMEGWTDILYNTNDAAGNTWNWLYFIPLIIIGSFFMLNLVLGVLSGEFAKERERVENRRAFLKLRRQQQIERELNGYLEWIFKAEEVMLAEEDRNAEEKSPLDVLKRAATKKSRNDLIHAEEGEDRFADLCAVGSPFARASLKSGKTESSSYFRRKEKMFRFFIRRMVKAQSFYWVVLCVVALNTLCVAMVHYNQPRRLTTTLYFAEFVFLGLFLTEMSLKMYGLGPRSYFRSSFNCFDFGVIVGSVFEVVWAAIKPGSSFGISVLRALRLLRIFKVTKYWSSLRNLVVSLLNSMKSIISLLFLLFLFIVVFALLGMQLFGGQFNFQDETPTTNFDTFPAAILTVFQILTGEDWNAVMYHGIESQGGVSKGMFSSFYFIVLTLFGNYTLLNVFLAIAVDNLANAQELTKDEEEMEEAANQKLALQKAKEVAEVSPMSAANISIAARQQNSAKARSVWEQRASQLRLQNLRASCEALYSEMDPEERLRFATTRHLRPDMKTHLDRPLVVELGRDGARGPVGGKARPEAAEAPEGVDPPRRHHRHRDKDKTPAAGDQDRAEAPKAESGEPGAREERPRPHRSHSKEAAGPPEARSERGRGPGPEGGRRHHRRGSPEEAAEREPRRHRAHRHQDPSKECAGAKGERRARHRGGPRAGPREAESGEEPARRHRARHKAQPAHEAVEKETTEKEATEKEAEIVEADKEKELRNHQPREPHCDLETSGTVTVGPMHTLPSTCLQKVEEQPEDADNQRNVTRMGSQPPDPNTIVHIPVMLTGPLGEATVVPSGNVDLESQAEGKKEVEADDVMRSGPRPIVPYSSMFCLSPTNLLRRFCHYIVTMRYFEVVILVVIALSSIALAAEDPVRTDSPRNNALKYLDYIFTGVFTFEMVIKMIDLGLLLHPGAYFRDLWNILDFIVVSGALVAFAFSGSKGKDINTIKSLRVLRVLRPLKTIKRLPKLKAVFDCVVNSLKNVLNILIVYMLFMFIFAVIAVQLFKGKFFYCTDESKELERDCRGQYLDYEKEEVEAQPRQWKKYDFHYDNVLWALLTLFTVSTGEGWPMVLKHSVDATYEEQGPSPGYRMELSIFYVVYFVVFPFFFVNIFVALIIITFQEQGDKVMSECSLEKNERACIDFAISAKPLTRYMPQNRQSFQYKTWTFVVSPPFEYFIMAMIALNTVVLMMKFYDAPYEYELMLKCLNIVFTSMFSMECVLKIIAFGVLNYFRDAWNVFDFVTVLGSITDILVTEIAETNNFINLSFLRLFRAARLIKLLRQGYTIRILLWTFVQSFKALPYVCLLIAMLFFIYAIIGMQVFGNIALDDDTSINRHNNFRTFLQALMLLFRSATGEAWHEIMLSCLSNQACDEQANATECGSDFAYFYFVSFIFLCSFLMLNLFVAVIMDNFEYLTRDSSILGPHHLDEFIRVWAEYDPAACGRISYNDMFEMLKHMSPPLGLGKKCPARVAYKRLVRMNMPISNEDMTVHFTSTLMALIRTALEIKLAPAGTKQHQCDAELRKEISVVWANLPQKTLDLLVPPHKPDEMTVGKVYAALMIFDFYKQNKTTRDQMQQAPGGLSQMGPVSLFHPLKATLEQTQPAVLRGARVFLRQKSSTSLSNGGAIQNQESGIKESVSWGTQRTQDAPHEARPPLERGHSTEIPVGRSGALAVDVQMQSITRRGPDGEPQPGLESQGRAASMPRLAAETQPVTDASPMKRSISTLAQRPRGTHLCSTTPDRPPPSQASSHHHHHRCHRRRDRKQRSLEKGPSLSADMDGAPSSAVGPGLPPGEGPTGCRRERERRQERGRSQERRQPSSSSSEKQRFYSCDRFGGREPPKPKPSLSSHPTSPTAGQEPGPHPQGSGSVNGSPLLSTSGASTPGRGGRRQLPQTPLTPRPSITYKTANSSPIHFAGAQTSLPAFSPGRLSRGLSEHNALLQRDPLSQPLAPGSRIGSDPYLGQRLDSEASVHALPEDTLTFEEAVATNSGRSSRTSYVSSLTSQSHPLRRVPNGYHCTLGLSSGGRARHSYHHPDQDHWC

R-type calcium current = settings: cited from earlier work
[3] = system: K+ and Na+ currents, and L, P/Q and T-type calcium currents; settings: cited from earlier work

Compound	odds ratio, primary end point (patients with SAH [1]; 5 mg/h versus placebo, 95% CI 0.479-1.289, P=0.340)	odds ratio, poor outcome (patients with SAH [1]; 5 mg/h versus placebo, 95% CI 0.546-1.544, P=0.748)	patients with primary end point (patients with SAH [1]; 5 mg/h, 47/194) [%]	patients with poor outcome (extended Glasgow Outcome Scale score </=4) (patients with SAH [1]; 5 mg/h) [%]	odds ratio, primary end point (patients with SAH [1]; 15 mg/h versus placebo, 95% CI 0.275-0.818, P=0.007)	odds ratio, poor outcome (patients with SAH [1]; 15 mg/h versus placebo, 95% CI 0.802-2.227, P=0.266)	patients with primary end point (patients with SAH [1]; 15 mg/h, 28/188) [%]	patients with poor outcome (extended Glasgow Outcome Scale score </=4) (patients with SAH [1]; 15 mg/h) [%]	patients meeting primary composite endpoint (week 6) (patients with SAH [2]; 5 mg/h up to 14 days, 161 of 764 patients, placebo 25%) [%]	relative risk reduction, primary composite endpoint (patients with SAH [2]; 5 mg/h versus placebo, 95% CI -4 to 33, p=0.10) [%]	relative risk reduction, poor functional outcome (patients with SAH [2]; 5 mg/h versus placebo, −45 to 4, p=0.10) [%]	patients with poor functional outcome (GOSE score </=4) (patients with SAH [2]; 5 mg/h, placebo 25%) [%]	Mortality (week 12) (patients with SAH [2]; 5 mg/h, same in placebo) [%]	block of N-type calcium current (N-type calcium current)	block of R-type calcium current (R-type calcium current; neurohypophysial nerve endings, 40 nM)	effect on R-type current (R-type calcium current; preparations of the neuronal cell body, retinal ganglion cells and hippocampal pyramidal cells)	effect on K+ and Na+ currents, and L, P/Q and T-type calcium currents [3]
COc1ccccc1Oc1c(NS(=O)(=O)c2ccc(C)cn2)nc(-c2ccnc(-c3nnn[nH]3)c2)nc1OCCO [clazosentan]	0.786	0.918	24	25	0.474	1.337	15	28	21	17	−18	29	6				
SNX-482: toxin from the tarantula Hysterocrates gigas, a 41 amino acid residue peptide with 3 disulfide linkages; putative R-type selective blocker (GVDKAGCRYMFGGCSVNDDCCPRLGCHSLFSYCAWDLTFSD; disulfide (positions not given here); UniProt P56854 1-41, looked up)														30-50%	blocks	no significant effect	no effect
